Data: patent US20250213560A1, “NITROGEN-CONTAINING HETEROCYCLIC COMPOUNDS HAVING PHENYL GROUP AND USES THEREOF” (BNH RESEARCH CO., LTD., priority 2022, published 2025)

What was measured:
293T cells = assay: Cytotoxicity test (CCK-8 cell viability) in 293T cells; format: cell-based, human; details: 293T cell line
Procedure: Human undifferentiated neuroblastoma cell line SH-SY5Y and human embryonic kidney cell line (HEK)-293T were purchased from Korean Cell Line Bank (Korea) and Takara (Japan), respectively. Cells were grown in HyClone Minimal Essential Medium (MEM) and Dulbecco's Modified Eagle Medium (DMEM), respectively, supplemented with 10% (v/v) fetal bovine serum (FBS), penicillin (100 U/mL), and streptomycin ([…]). Cells were maintained in a humidified atmosphere of 95% air and 5% CO2 at 37° C. Cells were passaged 10 times at maximum. Cells were dissociated using 0.05% trypsin-EDTA solution and the cells were seeded in new culture dishes for maintenance.
To examine the cytotoxicity of compounds described herein in human cell lines, SH-SY5Y and 293T cells were used. Approximately 8,000 cells (for 293T) and 15,000 cells (for SH-SY5Y) were plated per well of a 96-well plate (SPL Life Sciences Co., Ltd., Pocheon, Korea). After incubating at 37° C. for 24 hours in a humidified atmosphere containing 5% CO2, the culture medium was replaced by a series of concentrations of test compounds diluted in the corresponding culture medium.
The time of co-incubation was 24 hours and six replicates were made for each measurement. Finally, 10 μL of CCK-8 reagent (Dojindo Laboratories, Rockville, MD) was added to each well, and after incubation at 37° C. for 3 minutes, the OD at 450 nm was measured using a multifunction microplate reader (Tecan Infinite M200 Pro). These measurements were compared to that of a control and expressed as a percentage of the control to calculate cell viability. The IC50 value was calculated using SPSS software. To do this, the absorbance of the blank wells with only growth medium is subtracted from the values or the wells with cells. The readout value of background (vehicle) was set as a 100% viability, and then the percent viability for each test solution was calculated.
The data was presented as the mean value and standard error of the mean (S.E.M.). Statistical analysis was performed with the one-way ANOVA with Tukey's post hoc test (GraphPad Prism 5 software package, version 5.02, GraphPad Software Inc. USA). Significance was accepted at p<0.05.
The cytotoxicity of the compound was evaluated by treating cells with BnH12003 and measuring cell viability.
By treating cells with various BnH12 series compounds and measuring cell viability using the experimental procedure described in Example 2, the cytotoxicity of the compounds was evaluated.

GluN2B = GluN2B protein expression by Western blot in primary cortical neuron cells; format: cell-based, mouse
Procedure: Meanwhile, primary cortical neuron cells were isolated from cerebral cortices of 18-day-old mouse fetuses, incubated in prep media (composition (mM): NaCl 107.5, NaH2PO4 1, NaHCO333.5, glucose 11, HEPS 1%, penicillin-streptomycin 1%) containing 0.25% trypsin and DNasel for 30 minutes, dissociated into single cells, and seeded. Primary cortical neuron cells were grown in Neurobasal medium supplemented with 1% (v/v) B27, 1% penicillin (100 U/mL), streptomycin ([…]), and 1% Glutamax. Cells were maintained in a humidified atmosphere of 95% air and 5% CO2 at 37° C. Drug efficacy was evaluated after culturing primary cortical neuron cells for 14 days.
The amount of GluN2B reacted with the compound of the present disclosure was measured using Western blot. The fetal cerebral cortex was extracted from mice at 17 days of gestation, dissociated into single cells, cultured for 13 days, and treated with BnH drugs for 24 hours. The drug-treated cells were subjected to protein lysate preparation using RIPA protein lysis buffer containing protease and phosphatase inhibitors. The protein concentration was determined using a BCA protein assay kit (Pierce Biotechnology) using bovine serum albumin as a standard. Equal amounts of protein (20 μg per lane) were separated by electrophoresis on SDS-polyacrylamide gels at 90 V for 2 hours, then transferred from the SDS-polyacrylamide gel to PVDF membrane at 100 V for 1 hour. Then, primary reaction with GluN2B antibody (ab65783, Abcam) was performed at 4° C. for 1 day, washed three times at 10-minutes intervals with 1×PBT, and secondary reaction was performed with anti-mouse antibody (sc-2357, Santa Cruz) for 1 hour, followed by washing three times at 10-minutes intervals with 1×PBT. Western blotting was performed as described above to confirm GluN2B protein expression. Subsequently, each blot was re-probed using anti-β-actin antibody (sc-47778, Santa Cruz). Housekeeping protein B-actin was detected as a normalization control.
The increase and decrease of BnH12 series were confirmed by setting the vehicle to 1 (N for each group was 3 or more).
Using the experimental procedure described in Example 3, it was determined whether various BnH12 series compounds increase GluN2B expression, and the results are shown in Table 5. These in vitro experimental results are expressed as relative values to the group (vehicle) that was not treated with the compound, with the effect of the group set to 1.

C[C@H]1CC[C@@H](C(=O)O)CN1C(=O)Cc1cccc(-c2cncnc2)c1 [BnH12095, (3R,6S)-6-methyl-1-(2-(3-(pyrimidin-5-yl)phenyl)acetyl) piperidine-3-carboxylic acid]
Cell viability test results (CCK) 10 uM (293T cells; 10 uM): 80%< | Cell viability test results (CCK) 100 uM (293T cells; 100 uM): 75%< | GluN2B expression effect (in words) (GluN2B; compared to vehicle / other compounds, Table 5): excellent effects | Western blot results Mean (GluN2B expression) (GluN2B; relative value, vehicle set to 1, primary cortical neurons treated for 24 hours): 2.871
